Test results published in ChEMBL document CHEMBL1154158, “Synthesis and antitumoral activity of novel thiazolobenzotriazole, thiazoloindolo[3,2-c]quinoline and quinolinoquinoline derivatives” (Eur J Med Chem, 2009).
Calls of active or inactive are those of the source. The rule behind the calls is not given here.

Columns and labels:
HL-60 [1] = assay: Cytotoxicity against human HL60 cells after 72 hrs; assay type: functional, cell-based; settings: HL-60, 72 h
Nucleic Acid = assay: Binding affinity to poly(dAT)2 assessed as change in melting temperature at [compound]/[polynucleotide] ratio of 1 at pH 7.1; assay type: nucleic-acid assay
Calf thymus DNA = assay: Binding affinity to calf thymus DNA assessed as change in melting temperature at [compound]/[polynucleotide] ratio of 1; assay type: nucleic-acid assay; settings: Bos taurus
HL-60 [2] = assay: Cytotoxicity against human mitoxantrone-resistant HL60 cells after 72 hrs; assay type: functional, cell-based; settings: HL-60, 72 h
MCF7 = assay: Growth inhibition of human MCF7 cells at 10 uM after 72 hrs by MTT assay; assay type: functional; settings: MCF7, 72 h
MDA-MB-231 = assay: Growth inhibition of human MDA-MB-231 cells at 10 uM after 72 hrs by MTT assay; assay type: functional; settings: MDA-MB-231, 72 h
[3] = molecular target: DNA topoisomerase 2-alpha (Homo sapiens) (UniProt P11388); assay: Inhibition of human topoisomerase 2-mediated DNA cleavage
DNA topoisomerase 2-alpha (Homo sapiens), sequence (P11388 whole entry): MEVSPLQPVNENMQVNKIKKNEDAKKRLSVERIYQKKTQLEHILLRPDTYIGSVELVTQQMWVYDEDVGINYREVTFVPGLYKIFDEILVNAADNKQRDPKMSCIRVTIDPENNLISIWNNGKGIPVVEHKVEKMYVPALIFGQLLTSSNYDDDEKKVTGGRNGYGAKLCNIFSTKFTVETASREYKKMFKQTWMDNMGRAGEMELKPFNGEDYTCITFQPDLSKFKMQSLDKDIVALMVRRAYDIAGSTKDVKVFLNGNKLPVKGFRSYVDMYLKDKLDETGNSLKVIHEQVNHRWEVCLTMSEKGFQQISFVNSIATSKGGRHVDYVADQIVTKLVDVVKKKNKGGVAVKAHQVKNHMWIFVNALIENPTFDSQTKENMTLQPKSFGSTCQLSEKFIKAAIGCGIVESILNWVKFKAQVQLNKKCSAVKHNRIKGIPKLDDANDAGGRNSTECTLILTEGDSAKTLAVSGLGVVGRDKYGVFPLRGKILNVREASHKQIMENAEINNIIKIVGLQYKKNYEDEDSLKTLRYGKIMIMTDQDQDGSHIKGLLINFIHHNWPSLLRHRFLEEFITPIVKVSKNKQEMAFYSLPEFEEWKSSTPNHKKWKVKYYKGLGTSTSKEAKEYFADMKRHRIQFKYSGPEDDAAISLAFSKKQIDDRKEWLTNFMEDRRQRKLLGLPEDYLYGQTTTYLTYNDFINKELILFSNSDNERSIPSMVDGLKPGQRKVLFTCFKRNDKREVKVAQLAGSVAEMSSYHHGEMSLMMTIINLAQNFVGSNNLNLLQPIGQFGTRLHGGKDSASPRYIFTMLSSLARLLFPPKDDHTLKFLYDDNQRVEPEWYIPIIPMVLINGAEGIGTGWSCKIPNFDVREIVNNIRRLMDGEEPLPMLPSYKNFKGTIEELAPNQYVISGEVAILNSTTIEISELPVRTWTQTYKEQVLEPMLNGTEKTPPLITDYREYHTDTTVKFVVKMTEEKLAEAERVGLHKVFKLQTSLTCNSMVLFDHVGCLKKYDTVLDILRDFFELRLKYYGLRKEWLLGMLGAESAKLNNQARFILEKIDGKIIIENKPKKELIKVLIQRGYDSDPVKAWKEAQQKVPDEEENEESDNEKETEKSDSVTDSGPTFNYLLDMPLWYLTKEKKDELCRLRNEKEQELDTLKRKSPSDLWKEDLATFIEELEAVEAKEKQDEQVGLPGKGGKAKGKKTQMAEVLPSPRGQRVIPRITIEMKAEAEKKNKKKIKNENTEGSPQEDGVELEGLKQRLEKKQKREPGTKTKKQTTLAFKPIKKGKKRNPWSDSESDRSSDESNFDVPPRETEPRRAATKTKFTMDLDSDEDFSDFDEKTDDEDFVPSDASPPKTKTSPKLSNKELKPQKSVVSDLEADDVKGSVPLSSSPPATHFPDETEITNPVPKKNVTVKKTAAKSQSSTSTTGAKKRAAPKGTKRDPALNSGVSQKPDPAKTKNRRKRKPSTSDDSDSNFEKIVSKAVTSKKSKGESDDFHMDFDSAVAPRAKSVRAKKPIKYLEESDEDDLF

Structure (SMILES) | inhibition at 10 µM (MCF7) | inhibition at 10 µM (MDA-MB-231) | also measured
c1ccc2c(c1)ncc1c2[nH]c2ccc3ncsc3c21 | – | – | IC50 (HL-60 [1]): 17.2 µM; ΔTm (Nucleic Acid): 12.7 °C; ΔTm (Calf thymus DNA): 7.2 °C; IC50 (HL-60 [2]): 22.6 µM
Cc1cc(-n2nnc3c4sc(C#N)nc4ccc32)c2ccccc2n1 | 87.2% | 91.9% | –
c1ccc2c(-n3nnc4c5sc(C6=NCCN6)nc5ccc43)ccnc2c1 | 95.6% | 97.3% | –
CC[C@@]1(O)C(=O)OCc2c1cc1n(c2=O)Cc2cc3ccccc3nc2-1 | – | – | inhibition [3]: inactive
N#Cc1nc2ccc3c(nnn3-c3ccc4ccccc4n3)c2s1 | 30.4% | 19.8% | –
N#Cc1nc2ccc3c(nnn3-c3ccncc3)c2s1 | 95.5% | 87.4% | –
c1ccc2nc(-n3nnc4c5sc(C6=NCCN6)nc5ccc43)ccc2c1 | 41.3% | 28.5% | –
CC(=O)Nc1ccc2c(c1)-c1cccc3nccc(c13)N2 | – | – | IC50 (HL-60 [1]): 4.6 µM; ΔTm (Nucleic Acid): 24.5 °C; ΔTm (Calf thymus DNA): 14.5 °C; IC50 (HL-60 [2]): 5.5 µM
Cc1cc(-n2nnc3c4sc(C5=NCCN5)nc4ccc32)c2ccccc2n1 | 98.9% | 97.4% | –
c1cc(-n2nnc3c4sc(C5=NCCN5)nc4ccc32)ccn1 | 51.1% | 56.4% | –
Nc1ccc2[nH]c3c4ccccc4ncc3c2c1 | 73.5% | 85.7% | –
N#Cc1nc2ccc3c(nnn3-c3ccnc4ccccc34)c2s1 | 34.9% | 32.4% | –
